Assay results from PubChem BioAssay AID463203 (Broad Institute, 2010).
The source made the active and inactive calls.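 The calls were made as follows: active = more than half of replicate measurements showing over 20% loss of kinase signal relative to plate controls; inconclusive = some but at most half of replicates over 20% loss; inactive = no replicate over 20% signal loss.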

Molecular target: Glycogen synthase kinase-3 alpha (Homo sapiens) (UniProt P49840)
Assay: concentration-response blocking of human GSK3A – biochemical, luminescence, cell-free homogeneous, retest, dose response (AID 463203)
Settings: GSK-3 alpha enzyme, ADP-Glo luminescence, 60 min

Chain of Glycogen synthase kinase-3 alpha (Homo sapiens) (P49840 whole entry, looked up): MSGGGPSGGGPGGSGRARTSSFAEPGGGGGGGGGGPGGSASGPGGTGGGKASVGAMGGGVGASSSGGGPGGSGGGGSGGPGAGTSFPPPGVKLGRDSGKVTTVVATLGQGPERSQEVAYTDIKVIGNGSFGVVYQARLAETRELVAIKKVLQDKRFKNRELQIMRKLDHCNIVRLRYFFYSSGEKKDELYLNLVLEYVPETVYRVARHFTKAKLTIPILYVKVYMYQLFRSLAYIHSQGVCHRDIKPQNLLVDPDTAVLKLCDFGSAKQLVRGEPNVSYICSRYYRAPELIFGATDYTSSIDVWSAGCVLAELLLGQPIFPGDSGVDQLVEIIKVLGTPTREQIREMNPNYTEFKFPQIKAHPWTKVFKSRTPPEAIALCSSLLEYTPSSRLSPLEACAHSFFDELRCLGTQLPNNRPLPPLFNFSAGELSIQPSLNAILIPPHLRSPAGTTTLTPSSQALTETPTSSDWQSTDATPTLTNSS

Row | SMILES | AC50
1 | O=C(c1ccc2c(c1)OCO2)N1CCC2(CC1)OCCO2 | > 30 µM (inactive)
2 | O=C(Nc1cc(F)cc(F)c1)c1ccc(NCCCN2CCCCCC2)c([N+](=O)[O-])c1 | > 30 µM (inactive)
3 | COCCNc1nc(C)cc(-c2cc(C(=O)NC3CCCC3)on2)n1 | > 30 µM (inactive)
4 | COc1ccc(OCc2nc(N)nc(Nc3cccc(C)c3C)n2)cc1 | > 30 µM (inactive)
5 | COc1ccccc1Nc1nc(Cl)c(C=O)s1 | > 30 µM (inactive)
6 | COCc1nnc(NC(=O)CCN2C(=O)c3ccccc3C2=O)s1 | > 30 µM (inactive)
7 | CCOC(=O)N1CCC(N2CCN(S(=O)(=O)c3ccc([N+](=O)[O-])cc3)CC2)CC1 | > 30 µM (inactive)
8 | O=C(NCC1CCN(Cc2ccccc2Cl)CC1)Nc1ccccc1F | > 30 µM (inactive)
9 | O=S(=O)(c1cccs1)N1CCN(c2ccnc3cc(Cl)ccc23)CC1 | > 30 µM (inactive)
10 | COc1ccc(-c2cc(C(=O)N3CCN(c4ccccc4)CC3)no2)cc1OC | > 30 µM (inactive)
11 | COc1ccc(C(=O)NCC(=O)N/N=C(C)\C=C\c2ccccc2)cc1OC | > 30 µM (inactive)
12 | CCCCN(CCCC)S(=O)(=O)c1ccc2oc(C(=O)N3CCOCC3)c(C)c2c1 | > 30 µM (inactive)
13 | COc1ccc(C(=O)O/N=C(\N)c2ccccn2)c(OC)c1 | > 30 µM (inactive)
14 | CC(C)c1ccc(/C=N/NC(=O)c2nnn(-c3nonc3N)c2CN(C)C2CCCCC2)cc1 | > 30 µM (inactive)
15 | CCCC1=C(C(=O)OCC)C(c2cccnc2)n2nc(C)nc2N1 (stereo not given) | > 30 µM (inactive)
16 | COc1cccc(-c2c(C(=O)N/N=C(\C)c3cccnc3)nnn2-c2nonc2N)c1 | > 30 µM (inactive)
17 | CC1=C(C#N)c2nc(N)c(C#N)c(C)c2/C1=C\c1ccc(OCC(=O)O)c(Cl)c1 | 20.4 µM
18 | O=C(Nc1ncc([N+](=O)[O-])s1)c1ccc2c(c1)OCO2 | > 30 µM (inactive)
19 | O=C(Nc1cccc(-c2cnc3ccccc3n2)c1)c1ccco1 | > 30 µM (inactive)
20 | CCCn1c2ccccc2c2nc3ccccc3nc21 | > 30 µM (inactive)
21 | Cc1cccc(C(=O)Nc2cccc(C(=O)N/N=C/c3ccccn3)c2)c1 | 23.3 µM
22 | O=C1NC(c2ccccc2)(C(F)(F)F)C(=O)N1Cc1cccnc1 (stereo not given) | > 30 µM (inactive)
23 | O=C(NCc1ccc(C(=O)N2CCC3(CC2)OCCO3)cc1)c1ccc2c(c1)OCO2 | > 30 µM (inactive)
24 | O=C(NCCCN1CCN(CCCNC(=O)c2ccc3c(c2)OCO3)CC1)c1ccc2c(c1)OCO2 | 27.7 µM
25 | COc1ccc(NC(=O)c2nnn(Cc3ccc(SC)cc3)c2N)c(OC)c1 | > 30 µM (inactive)

Row | SMILES | AC50
26 | C[C@H](CO)N1C[C@H](C)[C@@H](CN(C)S(=O)(=O)c2ccc(F)cc2)Oc2c(NC(=O)Nc3ccccc3)cccc2C1=O | > 30 µM (inactive)
27 | CC1CCCC(C)N1C(=O)COC(=O)Cc1c[nH]c2ccccc12 (stereo not given) | > 30 µM (inactive)
28 | Cc1ccc(C)c(/C=N/Nc2ccccn2)c1 | > 30 µM (inactive)
29 | Cc1nnc(SCC(=O)Nc2sc3c(c2C(=O)c2ccccc2)CCCC3)s1 | > 30 µM (inactive)
30 | Cc1ccc(N(Cc2ccc([N+](=O)[O-])cc2)C(=O)c2ccco2)cc1C | > 30 µM (inactive)
31 | CCOc1cccc(-c2c(C(=O)N/N=C/c3ccoc3)nnn2-c2nonc2N)c1 | 6.81 µM
32 | Cc1nnc(NC(=O)Oc2ccccc2)s1 | > 30 µM (inactive)
33 | COc1ccc(/C=C(\C#N)C(=O)N=CN(C)C)cc1 | > 30 µM (inactive)
34 | CCOc1cccc(-c2c(C(=O)N/N=C(\C)c3cccnc3)nnn2-c2nonc2N)c1 | 5.21 µM
35 | COc1ccccc1OCC(=O)Nc1sc2c(c1C(N)=O)CCC2 | > 30 µM (inactive)
36 | CCOC(=O)N1CC=C2C(C#N)=C(N)C(C#N)(C#N)[C@H](c3cccs3)[C@H]2C1 | 22.1 µM
37 | O=c1c2ccccc2[nH]c2ccccc12 | > 30 µM (inactive)
38 | CCOC(=O)c1[nH]c2c(c1C)C(=O)CC(c1ccc(OC)c(OC)c1)C2 (stereo not given) | > 30 µM (inactive)
39 | CCOc1ccc(-n2c(O)c(C=NCCCn3ccnc3)c(=O)[nH]c2=O)cc1 | 22.4 µM
40 | CC(=O)Nc1ccc(NC(=O)c2cc(-n3cnnc3)ccc2Cl)cc1 | > 30 µM (inactive)
41 | Cc1nc2sc3c(c2c(=O)o1)CC(C)(C)OC3 | > 30 µM (inactive)
42 | Cc1cc(C(=O)CN(Cc2ccc(F)cc2)S(=O)(=O)c2ccc3c(c2)OCCO3)c(C)n1C | > 30 µM (inactive)
43 | COc1ccc2nc(SCc3nc(N)nc(Nc4ccccc4)n3)[nH]c2c1 | 12.5 µM
44 | CCC(CC)c1nnc(NC(=O)Oc2ccccc2)s1 | > 30 µM (inactive)
45 | COc1c2ccccc2c(OC)c2ccccc12 | > 30 µM (inactive)
46 | O=C(NCCCN1CCOCC1)c1ccc(Cl)cc1[N+](=O)[O-] | > 30 µM (inactive)
47 | COc1ccccc1/C=N/NC(=O)c1ccccc1Cl | > 30 µM (inactive)
48 | COc1cccc(C2C3(C#N)C(N)=NC(OC)(OC)C23C#N)c1 (stereo not given) | > 30 µM (inactive)
49 | O=C(O)c1cn(-c2ccccc2)nc1-c1cccnc1 | > 30 µM (inactive)
50 | Clc1ccc(C2=Nn3c(nnc3-c3cccnc3)SC2)s1 | > 30 µM (inactive)

Row | SMILES | AC50
51 | CCc1cc(C(=O)c2ccc(C)cc2)c(NC(=O)CCl)s1 | > 30 µM (inactive)
52 | CC(=O)N1CCN(c2ccccc2NC(=O)c2ccc(Br)o2)CC1 | 10.3 µM
53 | CCCCc1[nH]c(=O)c(C#N)c2c1CCCC2 | > 30 µM (inactive)
54 | COc1ccccc1C(=O)NC(C)c1ccccc1 (stereo not given) | > 30 µM (inactive)
55 | Cc1cccc(C)c1OC(=O)Cc1ccccc1 | > 30 µM (inactive)
56 | CN1/C(=C\C=C(/C#N)C(=O)Nc2ccccc2F)C(C)(C)c2ccccc21 | > 30 µM (inactive)
57 | COc1cc(C2CC(=O)Nc3n[nH]c(-c4ccccc4)c32)cc(OC)c1OC (stereo not given) | > 30 µM (inactive)
58 | COc1ccccc1C(=O)Nc1nc(C)cc(C)n1 | > 30 µM (inactive)
59 | COCCCNc1nc2nonc2nc1N1C[C@H]2CC[C@H]1C2 | > 30 µM (inactive)
60 | COC(=O)CCCNc1ncccc1[N+](=O)[O-] | > 30 µM (inactive)
61 | CCOCC(=O)Nc1nc2ccc(OCC)cc2s1 | > 30 µM (inactive)
62 | COc1ccc(Cl)cc1Nc1nc(N)c2ccccc2n1 | > 30 µM (inactive)
63 | Cc1ccc(C2C3=C(CCCC3=O)Nc3c2c(C)nn3-c2ccccn2)o1 (stereo not given) | > 30 µM (inactive)
64 | CSc1nc(NCC(C)C)nc(N2CCOCC2)n1 | > 30 µM (inactive)
65 | O=C(Nc1ccccc1N1CCN(C(=O)c2ccccc2)CC1)c1ccc(Br)o1 | 3.51 µM
66 | COC(=O)[C@H]1[C@H](CCc2ccccc2)NC(=O)N(Cc2ccccc2)[C@@H]1C | > 30 µM (inactive)
67 | Cc1sc2ncnc(NCCCN3CCCC3=O)c2c1C | 21.5 µM
68 | CCc1ccc(N2CSC3=C(C#N)C(c4cccs4)CC(=O)N3C2)cc1 (stereo not given) | 28.8 µM
69 | O=C1/C(=C/c2ccco2)Oc2c1ccc(O)c2CN1CCCCC1 | 10 µM
70 | CCN1/C(=C\C(C)=O)Sc2ccc(OC)cc21 | 17.4 µM
71 | CC(C)=CC(=O)NCc1c(Cl)cccc1-n1cccc1 | > 30 µM (inactive)
72 | C=CCN1C(=O)/C(=C\c2cccs2)C(C(=O)OC)=C1C | > 30 µM (inactive)
73 | CCCC(=O)Nc1nn(CC)c2nc3ccc(C)cc3cc12 | > 30 µM (inactive)
74 | CC1=C(C(=O)OC(C)C)C(c2cccs2)n2ncnc2N1 (stereo not given) | 28.8 µM
75 | Fc1ccc(/C=N/Nc2cc(N3CCOCC3)ncn2)cc1 | > 30 µM (inactive)
